We go through 61 molecules from patent publication US20080090805A1, “CB-1 MODULATING COMPOUNDS AND THEIR USE” (ACADIA PHARMACEUTICALS INC., priority 2005, published 2008).

In this assay the target is native CB1 receptors (Rattus norvegicus, UniProt P20272). The experiment in a line: CB1 receptor rat binding assay ([3H]SR141716A, rat brain membranes). The settings on record: rat brain membranes, [3H]SR141716A; for Ki: read-out: Binding rat pKi (converted).
Sequence of native CB1 receptors (P20272 whole entry): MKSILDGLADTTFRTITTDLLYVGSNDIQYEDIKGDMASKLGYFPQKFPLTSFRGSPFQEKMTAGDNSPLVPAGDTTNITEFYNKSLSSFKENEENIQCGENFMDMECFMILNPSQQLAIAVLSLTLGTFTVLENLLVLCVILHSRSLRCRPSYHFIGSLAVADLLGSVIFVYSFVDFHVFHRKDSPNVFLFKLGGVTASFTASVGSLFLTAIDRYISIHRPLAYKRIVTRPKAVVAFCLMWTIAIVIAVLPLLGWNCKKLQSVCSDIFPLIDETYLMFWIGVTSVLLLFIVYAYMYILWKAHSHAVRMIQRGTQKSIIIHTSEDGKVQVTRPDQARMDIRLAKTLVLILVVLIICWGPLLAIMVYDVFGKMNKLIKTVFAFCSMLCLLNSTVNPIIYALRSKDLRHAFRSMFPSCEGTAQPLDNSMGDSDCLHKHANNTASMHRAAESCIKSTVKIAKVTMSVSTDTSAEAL

With `CCCCNC(=O)c1ccc2c(c1)N=C(c1ccc(Cl)cc1)c1sccc1S2` [drawing 1247], the “Binding rat Inh %” value was 97% and the Ki is 1 nM.

`O=C(NCc1ccccn1)c1ccc2c(c1)N=C(c1cccc(Br)c1)c1ccccc1S2` [drawing 1419]: the “Binding rat Inh %” value worked out at 79% and the Ki was 39.8 nM.

For `O=C(NNC(=O)c1ccc2c(c1)N=C(c1ccc(F)cc1)c1ccccc1S2)c1ccccc1` [drawing 1519], the “Binding rat Inh %” value came to 79% and the Ki is 79.4 nM.

As to `CCN(CCNC(=O)c1ccc2c(c1)N=C(c1cccc(Cl)c1)c1ccccc1S2)c1ccccc1` [drawing 1298], the Ki was 2.51 nM.

In the case of `O=C(NN1CCCCCC1)c1ccc2c(c1)N=C(c1ccc(Cl)cc1Cl)c1ccccc1S2` [drawing 1522], the “Binding rat Inh %” value is 72% and the Ki is 79.4 nM.

Turning to `O=C(NCc1ccc(Cl)cc1Cl)c1ccc2c(c1)N=C(N1CCCCC1)c1ccccc1S2` [drawing 1514], the Ki was 79.4 nM.

For `O=C(NCc1cccc(Cl)c1)c1ccc2c(c1)N=C(c1cccc(Cl)c1)c1cc(F)ccc1S2` [drawing 1375], the Ki was 5.01 nM.

With `CC(C)NC(=O)c1ccc2c(c1)N=C(c1cccc(F)c1)c1ccccc1S2` [drawing 1528], the “Binding rat Inh %” value worked out at 77% and the Ki is 79.4 nM.

As to `O=C(NCc1cccc(Cl)c1)c1ccc2c(c1)N=C(c1ccccc1F)c1ccccc1S2` [drawing 1510], the Ki is 10 nM.

As for `CCCC1=Nc2cc(C(=O)NCc3ccccc3Cl)ccc2Sc2ccccc21` [drawing 1427], the Ki is 39.8 nM.

Regarding `O=C(NCc1ccccc1Cl)c1ccc2c(c1)N=C(c1ccc(Cl)cc1)c1ccccc1S2` [drawing 1341], the Ki was 25.1 nM.

With `CCCCNC(=O)c1ccc2c(c1)N=C(c1ccc(Cl)s1)c1ccc(F)cc1S2` [drawing 1267], the “Binding rat Inh %” value is on record as 93% and the Ki is 20 nM.

Regarding `O=C(NCc1ccco1)c1ccc2c(c1)N=C(c1cccc(Cl)c1)c1ccccc1S2` [drawing 1448], the “Binding rat Inh %” value amounted to 85% and the Ki was 7.94 nM.

In the case of `CCCCNC(=O)c1cnc2c(n1)N=C(c1ccccc1)c1ccccc1S2` [drawing 1534], the “Binding rat Inh %” value was found to be 88% and the Ki is 12.6 nM.

On to `CCCCNC(=O)c1ccc2c(c1)N=C(c1ccc(Cl)s1)c1cc(Cl)ccc1S2` [drawing 1426], for which the “Binding rat Inh %” value turned out to be 85% and the Ki was 6.31 nM.

`CCOC(=O)N1CCC(NC(=O)c2ccc3c(c2)N=C(c2ccc(Cl)cc2)c2ccccc2S3)CC1` [drawing 1548]: the Ki is 12.6 nM.

With `O=C(NCc1ccco1)c1ccc2c(c1)N=C(c1ccc(Cl)s1)c1ccccc1S2` [drawing 1383], the “Binding rat Inh %” value worked out at 112% and the Ki was 5.01 nM.

Regarding `CCCCNC(=O)c1ccc2c(c1)N=C(c1ccc(Cl)c(F)c1)c1ccccc1S2` [drawing 1274], the “Binding rat Inh %” value was found to be 96% and the Ki was 2 nM.

Consider `CC(C)CNC(=O)c1ccc2c(c1)N=C(c1ccc(Cl)s1)c1ccccc1S2` [drawing 1201], for which the “Binding rat pKi” value is reported as 8.6.

As for `O=C(NCc1ccco1)c1ccc2c(c1)N=C(c1ccccc1F)c1ccccc1S2` [drawing 1435], the “Binding rat Inh %” value was 83% and the Ki is 50.1 nM.

As to `Cc1ccsc1C1=Nc2cc(C(=O)NCCCC(F)(F)F)ccc2Sc2ccccc21` [drawing 1225], the “Binding rat Inh %” value turned out to be 109% and the Ki was 0.631 nM.

As to `O=C(NCCC(F)(F)F)c1ccc2c(c1)N=C(c1cccc(F)c1)c1ccccc1S2` [drawing 1337], the “Binding rat Inh %” value is given as 108% and the Ki is 3.98 nM.

In the case of `O=C(NCCc1ccccc1)c1ccc2c(c1)N=C(N1CCCCC1)c1ccccc1S2` [drawing 1470], the Ki was 63.1 nM.

Take `O=C(NCCc1ccc(Cl)cc1)c1ccc2c(c1)N=C(N1CCC(F)CC1)c1ccccc1S2` [drawing 1195]: the Ki was 12.6 nM.

For `O=C(NCc1ccccc1Cl)c1ccc2c(c1)N=C(c1ccc(F)cc1)c1ccccc1S2` [drawing 1291], the Ki is 20 nM.

As for `O=C(NN1CCCCC1)c1ccc2c(c1)N=C(c1cccc(Cl)c1)c1ccccc1S2` [drawing 1380], the “Binding rat Inh %” value is 79% and the Ki was 31.6 nM.

With `O=C(NCc1cccnc1)c1ccc2c(c1)N=C(c1cccc(Br)c1)c1ccccc1S2` [drawing 1278], the “Binding rat Inh %” value is given as 80% and the Ki is 20 nM.

With `O=C(NCc1ccncc1)c1ccc2c(c1)N=C(c1ccc(F)cc1)c1ccccc1S2` [drawing 1443], the “Binding rat Inh %” value is reported as 68% and the Ki is 50.1 nM.

In the case of `O=C(NN1CCCCC1)c1ccc2c(c1)N=C(c1cccc(Cl)c1)c1ccccc1O2`, the Ki is 39.8 nM.

As to `O=C(NCCC(F)(F)F)c1ccc2c(c1)N=C(c1cccc(Cl)c1)c1ccccc1S2` [drawing 1250], the “Binding rat Inh %” value was determined as 88% and the Ki is 1 nM.

For `CCN(CCNC(=O)c1ccc2c(c1)N=C(c1ccc(Cl)cc1)c1ccccc1S2)c1ccccc1` [drawing 1489], the Ki was 10 nM.

As to `NS(=O)(=O)c1ccc(CNC(=O)c2ccc3c(c2)N=C(c2ccc(F)cc2)c2ccccc2S3)cc1` [drawing 1454], the “Binding rat Inh %” value came out at 72% and the Ki was 50.1 nM.

As for `Cc1ccsc1C1=Nc2cc(C(=O)NC3CCCC3)ccc2Sc2ccccc21` [drawing 1382], the “Binding rat Inh %” value was 102% and the Ki was 31.6 nM.

Regarding `O=C(NCCc1ccc(Cl)cc1)c1ccc2c(c1)N=C(N1CCC(F)(F)CC1)c1ccccc1S2` [drawing 1492], the Ki is 63.1 nM.

In the case of `O=C(NC1CCCCC1)c1ccc2c(c1)N=C(c1ccc(Cl)cc1)c1ccccc1S2` [drawing 1518], the “Binding rat Inh %” value is reported as 96% and the Ki was 10 nM.

Turning to `COc1cccc(C2=Nc3cc(C(=O)NCc4ccc(C)o4)ccc3Sc3ccccc32)n1` [drawing 1458], the “Binding rat Inh %” value was determined as 90% and the Ki was 7.94 nM.

For `O=C(NCc1ccc(F)cc1)c1ccc2c(c1)N=C(N1CCCCC1)c1ccccc1S2` [drawing 1212], the Ki is 12.6 nM.

On to `O=C(NCCc1cccc(Cl)c1)c1ccc2c(c1)N=C(c1ccc(F)cc1)c1ccccc1S2` [drawing 1179], for which the Ki was 12.6 nM.

For the molecule `O=C(NN1CCCCC1)c1ccc2c(c1)N=C(c1ccc(Cl)c(F)c1)c1ccccc1S2` [drawing 1394], the “Binding rat Inh %” value is 87% and the Ki is 5.01 nM.

Regarding `O=C(NCc1ccccc1)c1ccc2c(c1)N=C(c1ccccc1)c1ccccc1S2` [drawing 1219], the Ki is 15.8 nM.

For `O=C(NC1CCCC1)c1ccc2c(c1)N=C(c1cccc(Cl)c1)c1ccccc1S2` [drawing 1547], the “Binding rat Inh %” value was 84% and the Ki is 12.6 nM.

As for `CCN(CCNC(=O)c1ccc2c(c1)N=C(C1CCCCC1)c1ccccc1S2)c1ccccc1` [drawing 1296], the Ki is 2.51 nM.

Regarding `CC(C)CNC(=O)c1ccc2c(c1)N=C(c1ccc(Cl)cn1)c1ccc(Cl)cc1S2` [drawing 1506], the “Binding rat Inh %” value is listed as 90% and the Ki is 79.4 nM.

Consider `CCOC(=O)c1ccc(C2=Nc3cc(C(=O)NCc4ccccn4)ccc3Sc3ccccc32)cc1` [drawing 1476], for which the “Binding rat Inh %” value is −43% and the Ki is 63.1 nM.

For `O=C(NCc1cccnc1)c1ccc2c(c1)N=C(c1ccc(Cl)c(Cl)c1)c1ccccc1S2` [drawing 1401], the “Binding rat Inh %” value came out at 102% and the Ki was 6.31 nM.

Regarding `Cc1cccc(C2=Nc3cc(C(=O)NCc4ccc(C)o4)ccc3Sc3ccccc32)n1` [drawing 1353], the “Binding rat Inh %” value came out at 108% and the Ki is 3.98 nM.

Consider `O=C(NN1CCCCC1)c1ccc2c(c1)N=C(c1ccc(Cl)cc1)c1ccccc1S2` [drawing 1424], for which the “Binding rat Inh %” value is 60% and the Ki is 6.31 nM.

Take `COCCNC(=O)c1ccc2c(c1)N=C(c1cccc(Cl)c1)c1ccccc1S2` [drawing 1461]: the “Binding rat Inh %” value was 80% and the Ki was 50.1 nM.

In the case of `Cc1ccc(CNC(=O)c2ccc3c(c2)N=C(c2ccsc2)c2ccccc2S3)o1` [drawing 1346], the “Binding rat Inh %” value is reported as 89% and the Ki was 3.98 nM.

`CCONC(=O)c1ccc2c(c1)N=C(c1ccc(Cl)c(Cl)c1)c1ccccc1S2` [drawing 1512]: the “Binding rat Inh %” value is 73% and the Ki is 79.4 nM.

Take `O=C(NN1CCCCCC1)c1ccc2c(c1)N=C(c1ccc(Cl)cc1F)c1ccccc1S2` [drawing 1386]: the “Binding rat Inh %” value amounted to 84% and the Ki was 5.01 nM.

Regarding `CCN(CCNC(=O)c1ccc2c(c1)N=C(c1ccccc1)c1ccccc1S2)c1ccccc1` [drawing 1245], the Ki was 15.8 nM.

With `CC(NC(=O)c1ccc2c(c1)N=C(N1CCCCC1)c1ccccc1S2)c1ccccc1` (centres unmarked), the Ki is 20 nM.

Regarding `O=C(NCc1cccs1)c1ccc2c(c1)N=C(c1ccccc1F)c1ccccc1S2` [drawing 1227], the “Binding rat Inh %” value came out at 94% and the Ki was 15.8 nM.

For `Cc1ccc(CNC(=O)c2ccc3c(c2)N=C(c2ccc(Cl)cc2)c2ccccc2S3)o1` [drawing 1416], the “Binding rat Inh %” value is 88% and the Ki is 6.31 nM.

`O=C(NCc1ccccc1Br)c1ccc2c(c1)N=C(c1ccccc1F)c1ccccc1S2` [drawing 1355]: the Ki was 31.6 nM.

Regarding `CCN(CCNC(=O)c1ccc2c(c1)N=C(c1ccc(F)cc1)c1ccccc1S2)c1ccccc1` [drawing 1297], the Ki was 2.51 nM.

Regarding `O=C(NCc1cccs1)c1ccc2c(c1)N=C(c1cccc(Cl)c1)c1ccccc1S2` [drawing 1272], the “Binding rat Inh %” value is reported as 109% and the Ki is 2 nM.

Turning to `O=C(NCc1cccc(Cl)c1)c1ccc2c(c1)N=C(c1ccc(Cl)cc1)c1cc(F)ccc1S2` [drawing 1456], the Ki was 7.94 nM.

Take `O=C(NCc1ccc(F)cc1)c1ccc2c(c1)N=C(C1CCCCC1)c1ccccc1S2(=O)=O` [drawing 1326]: the Ki was 25.1 nM.

On to `CCCNC(=O)c1ccc2c(c1)N=C(c1sccc1C)c1ccccc1S2` [drawing 1387], for which the “Binding rat Inh %” value came out at 64% and the Ki was 31.6 nM.
